Test system: microbial growth
Assay: Inhibition of microbial growth (preservative effect)

| Structure (SMILES) | amount that can inhibit microbial growth and act as a preservative (in casing) | effectiveness at inhibiting microbial growth compared with propylene glycol |
| --- | --- | --- |
| CC(O)CO (centres unmarked) [propylene glycol] | above 15 % by weight |  |
| O=C(O)CC(O)(CC(=O)O)C(=O)O [citric acid] |  | more effective at inhibiting microbial growth than propylene glycol |

Source: patent US12171255B2, “Shisha, heat-not-burn, or combustion casing, product, and method of making the same” (Tobacco Technology, Inc., priority 2020, dated 2024)
